Results reported in paper PMC6240093, “Identification of Two Mannosyltransferases Contributing to Biosynthesis of the Fungal-type Galactomannan α-Core-Mannan Structure in Aspergillus fumigatus” (Scientific Reports, 2018).

Molecular target: T1, CmsA (Aspergillus fumigatus, UniProt B0Y2F5)
T1 construct: gene AFUB_051270; catalytic domain residues 27-397 (N-terminal TM removed)
Assay: HPLC (UV300) of product with p-nitrophenyl alpha-D-mannopyranoside as acceptor
Format: biochemical
Conditions: donor 1.5 mM; p-nitrophenyl alpha-D-mannopyranoside 1.5 mM; 1.5 mM MnCl2; pH 7.0; 37 °C

T1 sequence (B0Y2F5 entry or part of it): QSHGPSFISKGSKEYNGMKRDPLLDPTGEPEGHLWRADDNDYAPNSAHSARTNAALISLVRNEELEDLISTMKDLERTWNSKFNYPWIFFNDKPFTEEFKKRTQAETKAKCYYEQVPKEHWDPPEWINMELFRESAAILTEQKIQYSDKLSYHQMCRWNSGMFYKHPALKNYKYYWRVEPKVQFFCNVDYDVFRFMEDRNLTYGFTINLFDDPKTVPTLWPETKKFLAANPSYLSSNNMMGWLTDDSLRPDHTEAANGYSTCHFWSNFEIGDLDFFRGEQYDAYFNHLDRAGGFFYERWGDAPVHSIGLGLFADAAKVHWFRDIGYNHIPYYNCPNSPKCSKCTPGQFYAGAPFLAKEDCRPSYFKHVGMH

In the case of `Nc1nc2c(ncn2[C@@H]2O[C@H](COP(=O)(O)OP(=O)(O)O[C@H]3O[C@H](CO)[C@@H](O)[C@H](O)[C@@H]3O)[C@@H](O)[C@H]2O)c(=O)[nH]1` [GDP-Man], the “HPLC (UV300) of product with p-nitrophenyl alpha-D-mannopyranoside as acceptor” value is reported as “CmsA has GDP-Man: α-mannoside α-1,2-mannosyltransferase activity in vitro”.
